Experimental findings from US20110217309A1, “BIOLOGICAL MARKERS PREDICTIVE OF ANTI-CANCER RESPONSE TO INSULIN-LIKE GROWTH FACTOR-1 RECEPTOR KINASE INHIBITORS” (priority 2010, published 2011) are described below.

For test [1], the system named is T47D. Kind of test: Cell Titer Glo proliferation assay. Type of test: cell-based, human. As to conditions: T47D breast cancer, PIK3CA mutant. An excerpt: (§1) Cell Lines and Culture. Human cancer cell lines, were obtained from American Type Culture Collection (ATCC, Manassas, Va.), or the following additional indicated sources, and cultured in media as described. Tumor types are also indicated: H295R (adrenocortical carcinoma; ATCC), NCI-[…], NCI-[…], SW1573 (NSCLC; ATCC), […], BxPC3 (pancreatic; ATCC), OVCAR5 (ovarian; NCI), MDAH-2774 (ovarian; ATCC), Igrov1 (ovarian; NCI), GEO (colon; Roswell Park Cancer Institute (RPCC)), HT-29 (colon; ATCC), RKO (colon; ATCC), […], 8226 (myeloma; ATCC), H929 (myeloma; ATCC), U266 (myeloma; ATCC), SKES1 (Ewings sarcoma; ATCC), RDES (Ewings sarcoma; ATCC), RD (rhabdomyosarcoma; ATCC), DU4475 (breast; ATCC), SKNAS (neuroblastoma; ATCC), 2650 (nasal SCC; ATCC), OVCAR4 (ovarian; NCI), A673 (Ewings sarcoma; ATCC), BT474 (breast; ATCC), 1386 (oral SCC; MSKCC, NY), 1186 (SCCHN; MSKCC, NY), Colo205 (colon; ATCC), HCT-15 (colon; ATCC), Fadu (oral SCC; ATCC), SKBR3 (breast; ATCC), 1483 (HNSCC; MSKCC, NY), HSC-2 (HNSCC; RIKEN BioResource Center, Tsukuba, Ibaraki, 305-0074, Japan), SKOV-3 (ovarian; ATCC), OVCAR-3 (ovarian; NCI), OVCAR-8 (ovarian; NCI), CaOV3 (ovarian; ATCC). […] The cells were routinely screened for the presence of mycoplasma (MycoAlert, Cambrex Bio Science, Baltimore, Md.). For growth inhibition assays, cells were plated and allowed to proliferate for 24 hours. […] Cell viability was assayed using the Cell Titer-Glo reagent (Promega Corp., Madison, Wis.). Proliferation Assay. […] The basis of the assay is a luminescent quantitation of ATP present in a cell culture plate well. In essence, the greater the number of viable cells in the well, the greater the level of ATP present. The assay utilizes a substrate that binds ATP to produce a luminescent signal, which can be read on a luminometer. Unless otherwise noted, the manufacturer's instructions were followed exactly. Briefly, on Day 1, cells were plated in 120 μl of 10% serum-containing growth media at a density of 4000 cells/well in a white polystyrene 96 well assay plate. […] After 72 h incubation with the inhibitor, the cells were assayed. Results were calculated as a fraction of the DMSO controlled cells.

For test [2], the system named is HCC1954. Kind of test: Cell Titer Glo proliferation assay. Type of test: cell-based, human. To be noted: HCC1954 breast cancer, PIK3CA mutant.
Text: as §1
(Cellular ATP, detected with luciferase, serves as a proxy for viable cell number.)

For test [3], the system named is MCF7. Kind of test: Cell Titer Glo proliferation assay. Type of test: cell-based, human. To be noted: MCF7 breast cancer, PIK3CA mutant.
Text: as §1

The subject of test [4] is OVCAR4. Kind of test: Cell Titer Glo proliferation assay. Type of test: cell-based, human. To be noted: OVCAR4, wild type KRAS.
Text: as §1

In test [5] the test system is OVK18. Kind of test: Cell Titer Glo proliferation assay. Type of test: cell-based, human. To be noted: OVK18, wild type KRAS.
Text: as §1

In test [6] the test system is LS174T. Kind of test: Cell Titer Glo proliferation assay. Type of test: cell-based, human. As to conditions: LS174T colon cancer, PIK3CA mutant.
Text: as §1

Test [7] relates to OVCAR-4, SKOV-3, OVCAR-3, OVCAR-8, CaOV3-5, and IGROV-1. Kind of test: Cell Titer Glo proliferation assay, K-RAS wild-type OvCa lines. It is filed as cell-based, human. To be noted: other six OvCa cell lines of the panel, WT KRAS, 72 hours. The source says: KRAS mutation status, as reported by the Sanger Wellcome Trust, is noted. Results shown are typical of three or more independent experiments. Grey symbols indicate data for K-RAS mutant (mt) cell lines OVCAR-5 and MDAH2774. Black symbols indicate data for K-RAS wild-type (wt) cell lines OVCAR-4, SKOV-3, OVCAR-3, OVCAR-8, CaOV3-5, and IGROV-1. Cell Lines and Culture. Human cancer cell lines, were obtained from American Type Culture Collection (ATCC, Manassas, Va.), or the following additional indicated sources, and cultured in media as described. […] The basis of the assay is a luminescent quantitation of ATP present in a cell culture plate well. […] The assay utilizes a substrate that binds ATP to produce a luminescent signal, which can be read on a luminometer. […] Results were calculated as a fraction of the DMSO controlled cells.

The subject of test [8] is BxPC3 tumors. Kind of test: Tumor xenograft study. As to conditions: treatment in vivo for 10-14 days.

Turning to `C[C@]1(O)C[C@@H](c2nc(-c3ccc4ccc(-c5ccccc5)nc4c3)c3c(N)nccn32)C1` [OSI-906, cis-3-[8-amino-1-(2-phenyl-quinolin-7-yl)-imidazo[1,5-a]pyrazin-3-yl]-1-methyl-cyclobutanol], the “sensitivity to OSI-906” value is listed as “insensitive (insensitive (EC50>10 μM))” in test [1]; “insensitive (insensitive (EC50>10 μM))” in test [2]; “sensitive (sensitive (EC50<1 μM))” in test [3]; “insensitive (insensitive (EC50>10 μM))” in test [4]; “insensitive (insensitive (EC50>10 μM))” in test [5]; “sensitive (sensitive (EC50<1 μM))” in test [6]. For the same compound, the sensitivity of proliferation entry in test [7] is given as “relatively insensitive”. The “% TGI (tumor growth inhibition)” value in test [8] was determined as 56%.
